Experimental data as given in ChEMBL document CHEMBL5465560, “Selectivity Literature for EUbOPEN Chemogenomic Library” (2024).
Each block holds one molecule with its values, some of them ahead of it.

Legend:
[1] = molecular target: Neuromedin-K receptor (Homo sapiens) (UniProt P29371); test: Selectivity interaction (Eurofins CEREP Diversity Profile (receptors and ion channels)) EUB0000279b TACR3; conditions: at 10 µM
[2] = molecular target: Serine/threonine-protein kinase 33 (Homo sapiens) (UniProt Q9BYT3); test: Selectivity interaction (KinomeScan (DiscoverX)) EUB0001079a STK33; conditions: at 1 µM
Sequence of Serine/threonine-protein kinase 33 (Homo sapiens) (Q9BYT3 whole entry, looked up): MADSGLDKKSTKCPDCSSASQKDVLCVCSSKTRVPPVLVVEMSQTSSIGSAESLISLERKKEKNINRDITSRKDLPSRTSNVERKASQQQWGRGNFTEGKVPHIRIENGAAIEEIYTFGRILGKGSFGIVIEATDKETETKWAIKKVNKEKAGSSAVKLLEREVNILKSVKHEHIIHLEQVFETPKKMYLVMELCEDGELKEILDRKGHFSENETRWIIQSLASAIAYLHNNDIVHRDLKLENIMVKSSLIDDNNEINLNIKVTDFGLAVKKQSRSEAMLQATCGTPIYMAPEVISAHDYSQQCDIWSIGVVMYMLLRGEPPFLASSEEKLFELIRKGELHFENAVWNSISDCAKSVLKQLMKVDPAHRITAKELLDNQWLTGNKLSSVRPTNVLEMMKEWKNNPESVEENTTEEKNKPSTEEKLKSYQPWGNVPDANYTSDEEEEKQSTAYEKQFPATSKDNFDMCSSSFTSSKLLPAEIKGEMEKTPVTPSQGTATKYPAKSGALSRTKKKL

[3] = molecular target: Dual specificity tyrosine-phosphorylation-regulated kinase 1B (Homo sapiens, UniProt Q9Y463); test: Selectivity interaction (SelectScreen profiling (Invitrogen)) EUB0000607a DYRK1B; conditions: at 2 µM
[4] = test system: Mast/stem cell growth factor receptor Kit (Homo sapiens), P10721 [D816V]; conditions: at 10 µM
Sequence of Mast/stem cell growth factor receptor Kit (Homo sapiens), P10721 [D816V] (P10721 whole entry D816V): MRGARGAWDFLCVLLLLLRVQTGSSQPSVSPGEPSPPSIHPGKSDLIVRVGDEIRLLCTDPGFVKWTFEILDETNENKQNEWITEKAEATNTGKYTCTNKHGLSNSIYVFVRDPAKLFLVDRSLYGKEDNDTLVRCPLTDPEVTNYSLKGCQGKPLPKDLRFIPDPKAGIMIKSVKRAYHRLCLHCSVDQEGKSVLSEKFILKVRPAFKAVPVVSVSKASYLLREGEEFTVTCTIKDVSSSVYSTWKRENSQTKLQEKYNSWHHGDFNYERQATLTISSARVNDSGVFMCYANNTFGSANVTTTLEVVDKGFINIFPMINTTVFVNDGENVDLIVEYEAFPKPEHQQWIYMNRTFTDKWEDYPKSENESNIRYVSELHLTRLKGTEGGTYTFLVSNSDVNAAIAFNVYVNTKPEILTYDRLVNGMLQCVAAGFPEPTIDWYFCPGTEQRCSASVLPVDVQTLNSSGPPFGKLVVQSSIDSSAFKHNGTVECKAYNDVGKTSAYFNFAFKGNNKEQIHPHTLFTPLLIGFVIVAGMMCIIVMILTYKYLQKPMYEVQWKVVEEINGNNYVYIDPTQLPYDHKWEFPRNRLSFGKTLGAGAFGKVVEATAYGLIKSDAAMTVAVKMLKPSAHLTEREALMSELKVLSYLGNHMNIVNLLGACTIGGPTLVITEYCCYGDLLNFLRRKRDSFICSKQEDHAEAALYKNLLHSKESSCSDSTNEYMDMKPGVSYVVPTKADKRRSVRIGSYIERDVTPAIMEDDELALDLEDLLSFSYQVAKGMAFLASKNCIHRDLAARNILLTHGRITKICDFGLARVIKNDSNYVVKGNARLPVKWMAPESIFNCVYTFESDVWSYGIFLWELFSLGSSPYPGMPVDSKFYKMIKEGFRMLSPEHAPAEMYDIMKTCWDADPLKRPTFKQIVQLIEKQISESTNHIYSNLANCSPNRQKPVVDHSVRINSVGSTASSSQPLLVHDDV

Focal adhesion kinase 1 = Focal adhesion kinase 1 (Homo sapiens, UniProt Q05397); test: Selectivity interaction (Kinase panel (Invitrogen)) EUB0000639a PTK2; conditions: at 200 nM
Sequence of Focal adhesion kinase 1 (Q05397 2-1052 limits assumed): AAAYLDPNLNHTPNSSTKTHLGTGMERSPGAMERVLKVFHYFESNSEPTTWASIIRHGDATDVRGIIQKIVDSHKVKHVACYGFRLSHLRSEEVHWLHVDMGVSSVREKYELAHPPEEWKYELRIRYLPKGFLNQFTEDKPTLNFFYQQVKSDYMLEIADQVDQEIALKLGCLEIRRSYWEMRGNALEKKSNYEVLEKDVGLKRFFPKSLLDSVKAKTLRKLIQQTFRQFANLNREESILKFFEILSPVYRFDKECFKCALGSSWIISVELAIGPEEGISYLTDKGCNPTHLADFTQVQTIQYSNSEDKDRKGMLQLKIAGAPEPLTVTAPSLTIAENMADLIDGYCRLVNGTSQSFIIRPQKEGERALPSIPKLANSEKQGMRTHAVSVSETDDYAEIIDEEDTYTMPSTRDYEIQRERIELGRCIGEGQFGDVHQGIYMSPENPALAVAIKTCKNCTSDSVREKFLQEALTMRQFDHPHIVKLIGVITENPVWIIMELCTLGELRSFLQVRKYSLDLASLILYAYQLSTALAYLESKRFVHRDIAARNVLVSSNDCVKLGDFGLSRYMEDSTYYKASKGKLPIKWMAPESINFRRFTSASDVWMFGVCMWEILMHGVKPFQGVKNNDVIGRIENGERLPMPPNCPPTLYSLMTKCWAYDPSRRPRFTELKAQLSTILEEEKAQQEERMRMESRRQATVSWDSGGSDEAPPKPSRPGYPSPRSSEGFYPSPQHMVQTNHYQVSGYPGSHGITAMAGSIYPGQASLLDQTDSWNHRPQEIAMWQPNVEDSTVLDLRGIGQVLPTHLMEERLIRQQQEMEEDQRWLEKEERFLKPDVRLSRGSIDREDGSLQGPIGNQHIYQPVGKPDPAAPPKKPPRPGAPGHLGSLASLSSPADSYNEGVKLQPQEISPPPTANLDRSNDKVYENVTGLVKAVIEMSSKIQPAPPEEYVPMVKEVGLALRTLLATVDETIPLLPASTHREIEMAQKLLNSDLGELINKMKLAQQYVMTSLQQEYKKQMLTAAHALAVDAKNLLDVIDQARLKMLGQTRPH

[5] = molecular target: T1, Mitogen-activated protein kinase kinase kinase 3 (Homo sapiens) (UniProt Q99759); test: Selectivity interaction (ActivX KiNativ screen (kinase selectivity in THP-1 cell lysates)) EUB0000639a MAP3K3; type: subcellular; conditions: lysate, at 0.04 µM
T1 sequence (whole entry): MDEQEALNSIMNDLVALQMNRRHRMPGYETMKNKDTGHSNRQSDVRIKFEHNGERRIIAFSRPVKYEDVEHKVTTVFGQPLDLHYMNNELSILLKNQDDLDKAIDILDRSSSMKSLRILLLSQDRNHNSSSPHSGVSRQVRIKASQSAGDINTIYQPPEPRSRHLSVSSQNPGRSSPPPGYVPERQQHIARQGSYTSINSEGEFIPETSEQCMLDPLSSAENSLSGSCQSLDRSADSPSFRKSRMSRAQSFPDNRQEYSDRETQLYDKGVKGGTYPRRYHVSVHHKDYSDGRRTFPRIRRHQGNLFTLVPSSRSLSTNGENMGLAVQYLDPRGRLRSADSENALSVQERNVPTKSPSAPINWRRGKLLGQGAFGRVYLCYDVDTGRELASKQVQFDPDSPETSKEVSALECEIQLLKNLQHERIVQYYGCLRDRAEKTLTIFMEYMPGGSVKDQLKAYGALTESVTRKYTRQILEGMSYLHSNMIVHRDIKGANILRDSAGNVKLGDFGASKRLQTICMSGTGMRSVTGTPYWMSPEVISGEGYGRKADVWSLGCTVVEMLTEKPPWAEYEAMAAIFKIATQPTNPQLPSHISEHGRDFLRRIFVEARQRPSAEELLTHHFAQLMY

[6] = molecular target: T2, Phosphatidylinositol 3-kinase C2 domain-containing subunit gamma (Homo sapiens) (UniProt O75747); test: Selectivity interaction (KinomeScan (DiscoverX)) EUB0000229b PIK3C2G; conditions: at 10 µM
T2 sequence (whole entry): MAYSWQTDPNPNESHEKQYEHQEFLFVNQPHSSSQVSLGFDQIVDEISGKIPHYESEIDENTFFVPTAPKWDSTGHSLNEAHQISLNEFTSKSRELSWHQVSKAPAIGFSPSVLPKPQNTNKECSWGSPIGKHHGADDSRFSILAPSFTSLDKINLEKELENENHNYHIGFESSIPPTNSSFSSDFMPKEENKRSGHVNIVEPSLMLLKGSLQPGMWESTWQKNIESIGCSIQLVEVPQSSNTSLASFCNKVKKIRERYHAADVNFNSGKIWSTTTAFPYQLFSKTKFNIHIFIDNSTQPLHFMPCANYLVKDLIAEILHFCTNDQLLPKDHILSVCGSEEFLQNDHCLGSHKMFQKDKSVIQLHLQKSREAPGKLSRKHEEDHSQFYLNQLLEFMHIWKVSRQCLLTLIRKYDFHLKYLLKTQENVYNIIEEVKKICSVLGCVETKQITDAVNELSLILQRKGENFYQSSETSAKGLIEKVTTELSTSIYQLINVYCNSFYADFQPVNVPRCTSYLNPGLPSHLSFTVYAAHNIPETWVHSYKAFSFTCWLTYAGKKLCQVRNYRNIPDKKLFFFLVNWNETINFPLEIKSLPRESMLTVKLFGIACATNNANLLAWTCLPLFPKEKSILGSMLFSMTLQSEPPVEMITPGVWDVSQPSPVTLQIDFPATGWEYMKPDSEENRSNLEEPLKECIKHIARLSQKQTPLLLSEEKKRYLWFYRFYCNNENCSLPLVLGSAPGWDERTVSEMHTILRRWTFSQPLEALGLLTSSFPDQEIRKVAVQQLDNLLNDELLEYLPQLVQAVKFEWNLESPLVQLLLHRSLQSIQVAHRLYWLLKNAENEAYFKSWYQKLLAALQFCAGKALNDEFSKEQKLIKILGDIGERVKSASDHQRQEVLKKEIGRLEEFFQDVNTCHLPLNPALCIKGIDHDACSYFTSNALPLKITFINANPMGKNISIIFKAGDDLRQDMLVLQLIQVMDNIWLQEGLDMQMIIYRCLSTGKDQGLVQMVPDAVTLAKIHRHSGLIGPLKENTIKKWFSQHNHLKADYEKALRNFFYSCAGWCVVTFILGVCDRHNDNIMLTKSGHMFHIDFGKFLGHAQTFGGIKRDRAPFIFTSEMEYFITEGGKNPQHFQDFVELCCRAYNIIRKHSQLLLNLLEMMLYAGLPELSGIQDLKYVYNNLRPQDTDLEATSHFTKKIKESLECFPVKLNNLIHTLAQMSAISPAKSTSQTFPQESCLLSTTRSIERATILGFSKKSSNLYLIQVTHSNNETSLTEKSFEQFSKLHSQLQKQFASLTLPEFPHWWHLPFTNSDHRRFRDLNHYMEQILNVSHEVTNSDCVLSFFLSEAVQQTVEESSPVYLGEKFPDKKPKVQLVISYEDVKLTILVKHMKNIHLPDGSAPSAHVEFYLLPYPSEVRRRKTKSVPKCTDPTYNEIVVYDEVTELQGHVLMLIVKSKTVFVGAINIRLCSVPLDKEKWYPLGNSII

[7] = molecular target: Cyclin-dependent kinase 14 (Homo sapiens) (UniProt O94921); test: Selectivity interaction (KinomeScan (DiscoverX)) EUB0000229b CDK14; conditions: at 10 µM
Sequence of Cyclin-dependent kinase 14 (Homo sapiens) (O94921 whole entry): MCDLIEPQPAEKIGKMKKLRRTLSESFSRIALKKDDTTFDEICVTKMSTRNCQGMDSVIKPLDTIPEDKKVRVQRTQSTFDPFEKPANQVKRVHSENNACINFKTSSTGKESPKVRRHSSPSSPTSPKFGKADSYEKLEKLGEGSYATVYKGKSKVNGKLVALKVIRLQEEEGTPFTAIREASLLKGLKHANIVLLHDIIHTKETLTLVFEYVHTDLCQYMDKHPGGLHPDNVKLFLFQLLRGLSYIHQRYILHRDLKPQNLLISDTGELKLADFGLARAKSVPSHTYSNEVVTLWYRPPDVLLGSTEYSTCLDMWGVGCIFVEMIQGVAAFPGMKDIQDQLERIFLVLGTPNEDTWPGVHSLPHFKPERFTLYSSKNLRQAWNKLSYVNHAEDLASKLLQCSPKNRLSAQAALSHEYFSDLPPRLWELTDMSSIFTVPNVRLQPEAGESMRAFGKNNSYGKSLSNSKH

[8] = molecular target: Receptor tyrosine-protein kinase erbB-2 (Homo sapiens, UniProt P04626); test: Selectivity interaction (KinomeScan (DiscoverX)) EUB0001049a ERBB2; conditions: at 1 µM
Sequence of Receptor tyrosine-protein kinase erbB-2 (P04626 whole entry): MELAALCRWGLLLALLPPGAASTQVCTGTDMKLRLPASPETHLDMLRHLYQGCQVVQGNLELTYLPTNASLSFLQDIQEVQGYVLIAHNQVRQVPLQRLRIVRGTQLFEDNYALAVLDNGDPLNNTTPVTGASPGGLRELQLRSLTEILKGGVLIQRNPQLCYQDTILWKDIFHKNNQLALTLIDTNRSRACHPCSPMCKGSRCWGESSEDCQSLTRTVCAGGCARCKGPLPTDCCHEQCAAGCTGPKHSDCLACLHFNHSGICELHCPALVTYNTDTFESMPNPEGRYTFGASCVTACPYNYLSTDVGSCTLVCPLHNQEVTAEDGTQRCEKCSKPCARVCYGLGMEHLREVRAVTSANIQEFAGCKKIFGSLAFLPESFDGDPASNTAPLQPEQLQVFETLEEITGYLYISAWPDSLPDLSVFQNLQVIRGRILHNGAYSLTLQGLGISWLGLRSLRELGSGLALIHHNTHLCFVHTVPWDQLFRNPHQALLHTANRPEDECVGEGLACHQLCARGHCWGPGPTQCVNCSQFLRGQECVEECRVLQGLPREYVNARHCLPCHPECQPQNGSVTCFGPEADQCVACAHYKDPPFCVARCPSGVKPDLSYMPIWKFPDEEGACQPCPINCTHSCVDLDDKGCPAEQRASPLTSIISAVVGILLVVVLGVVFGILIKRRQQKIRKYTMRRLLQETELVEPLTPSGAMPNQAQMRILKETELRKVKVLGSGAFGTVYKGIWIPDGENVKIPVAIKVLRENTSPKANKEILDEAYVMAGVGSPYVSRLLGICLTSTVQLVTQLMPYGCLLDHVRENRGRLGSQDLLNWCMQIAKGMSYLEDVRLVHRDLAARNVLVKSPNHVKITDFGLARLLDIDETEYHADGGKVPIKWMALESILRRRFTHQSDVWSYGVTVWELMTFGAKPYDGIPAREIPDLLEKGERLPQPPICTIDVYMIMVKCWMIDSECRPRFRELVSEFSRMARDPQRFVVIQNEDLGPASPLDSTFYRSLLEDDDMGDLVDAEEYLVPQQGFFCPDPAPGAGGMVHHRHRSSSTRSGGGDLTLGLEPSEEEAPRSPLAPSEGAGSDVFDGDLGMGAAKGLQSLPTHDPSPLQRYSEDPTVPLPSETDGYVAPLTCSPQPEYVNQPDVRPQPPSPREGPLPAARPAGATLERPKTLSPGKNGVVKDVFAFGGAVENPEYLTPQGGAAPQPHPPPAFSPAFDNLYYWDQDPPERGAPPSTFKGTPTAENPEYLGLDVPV

[9] = molecular target: Tyrosine-protein kinase receptor UFO (Homo sapiens) (UniProt P30530); test: Selectivity interaction (KinomeScan (DiscoverX)) EUB0000666a AXL; conditions: at 10 µM
[10] = molecular target: PAS domain-containing serine/threonine-protein kinase (Homo sapiens) (UniProt Q96RG2); test: Selectivity interaction (Kinase panel (Z-LYTE Assay)) EUB0001632a PASK; conditions: at 10 µM
[11] = molecular target: MAP kinase-interacting serine/threonine-protein kinase 1 (Homo sapiens) (UniProt Q9BUB5); test: Selectivity interaction (KinomeScan (DiscoverX)) EUB0000695a MKNK1; conditions: at 100 nM

Sequence of Neuromedin-K receptor (Homo sapiens) (P29371 whole entry): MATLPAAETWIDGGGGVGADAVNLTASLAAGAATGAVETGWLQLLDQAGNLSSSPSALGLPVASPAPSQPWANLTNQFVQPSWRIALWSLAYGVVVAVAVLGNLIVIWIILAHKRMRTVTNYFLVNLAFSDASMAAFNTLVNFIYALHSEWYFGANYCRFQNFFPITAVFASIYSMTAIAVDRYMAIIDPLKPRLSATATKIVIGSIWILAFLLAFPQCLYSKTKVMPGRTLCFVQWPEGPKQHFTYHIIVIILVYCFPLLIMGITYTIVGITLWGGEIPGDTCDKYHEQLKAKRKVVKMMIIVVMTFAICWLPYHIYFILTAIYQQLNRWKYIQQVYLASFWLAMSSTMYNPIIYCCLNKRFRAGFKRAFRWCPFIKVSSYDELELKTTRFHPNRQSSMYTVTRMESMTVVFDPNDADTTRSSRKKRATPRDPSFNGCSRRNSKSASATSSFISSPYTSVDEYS

% of control [1]: 85%
SMILES: CC(=O)c1cc(-c2ccccc2OCC2CC2)c2ncccn12

SMILES: Nc1cnc(N2CCc3cc(S(=O)(=O)Nc4c(F)cc(Cl)cc4F)cc(N4CCCC4=O)c32)nc1 [TP-020n]
% of control [2]: 80%

SMILES: CNC(=O)Nc1ccc(-c2nc(N3CC4CCC(C3)O4)c3cnn(C4CCC5(CC4)OCCO5)c3n2)cc1
% of inhibition [3]: 2%

SMILES: Cc1cc([C@@H](C)Nc2ccccc2C(=O)O)c2nc(N3CCOCC3)cc(=O)n2c1 [AZD-6482]
% of control [4]: 81%

% of inhibition (Focal adhesion kinase 1): 3.3%
% of inhibition [5]: 8.3%
SMILES: CC[C@@H]1[C@H](F)C(=O)N[C@@H]1COc1nccc2cc(C(N)=O)c(OC)cc12 [ZIMLOVISERTIB]

SMILES: COc1cc(N(C)c2ccnc3ccc(C(F)(F)F)cc23)cc(OC)c1OC
% binding [6]: 75%
% binding [7]: 92%

SMILES: COc1cc(Nc2nc(C)cc(-c3cnn4nc(OC)ccc34)n2)cc(C(F)(F)F)c1
% of control [8]: 100%

SMILES: O=C(NOC[C@H](O)CO)c1ccc(F)c(F)c1Nc1ccc(I)cc1F
% of control [9]: 83%

% of control [10]: 2.87%
SMILES: Cn1cc(-n2cnc3c(NCc4nc5cc(Cl)c(Cl)cc5[nH]4)nc(N4CCOCC4)nc32)cn1

SMILES: Cc1cc(F)c(C(=O)Nc2cccc(-c3nncn3C(C)C)n2)cc1-n1cnc(C2CC2)c1
% of control [11]: 96%
